# How the values were obtained:
# Test in all cases: relative viability (nuclei count vs DMSO), 5 days (fraction); higher = more cells survive
# [1] = compound: CN1CCN(c2ccc3nc(-c4c(N)c5c(F)cccc5[nH]c4=O)[nH]c3c2)CC1 [Dovitinib] + COc1cc2c(Oc3ccc(NC(=O)C4(C(=O)Nc5ccc(F)cc5)CC4)cc3F)ccnc2cc1OCCCN1CCOCC1 [Foretinib] (partner 0.25 µM)
# Method in brief: (§1)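 Five library-drug doses in √10 steps were combined with a fixed anchor-drug dose, or a single drug was given alone, by pin tool to lung cancer cell lines in 1536-well plates the day after seeding. Nuclei were stained and counted after 5 days. Relative viability is the nuclei count in treated wells over that in vehicle wells, taken as the median of duplicate plates.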
# [2] = compound: CN1CCN(c2ccc3nc(-c4c(N)c5c(F)cccc5[nH]c4=O)[nH]c3c2)CC1 [Dovitinib] + CS(=O)(=O)N1CCN(Cc2cc3nc(-c4cccc5[nH]ncc45)nc(N4CCOCC4)c3s2)CC1 [Pictilisib] (partner 1 µM)
# Method in brief: as §1
# [3] = compound: CN1CCN(c2ccc3nc(-c4c(N)c5c(F)cccc5[nH]c4=O)[nH]c3c2)CC1 [Dovitinib] + NC(=O)Nc1cc(-c2cccc(F)c2)sc1C(=O)N[C@H]1CCCNC1 [AZD7762] (partner 0.2 µM)
# Method in brief: as §1
# [4] = compound: CN1CCN(c2ccc3nc(-c4c(N)c5c(F)cccc5[nH]c4=O)[nH]c3c2)CC1 [Dovitinib] + O=C(CCCCCCC(=O)Nc1ccccc1)NO [Vorinostat] (partner 1 µM)
# Method in brief: as §1
Cell Line,relative viability ([1]; first compound 0.02 µM),relative viability ([1]; first compound 0.06325 µM),relative viability ([1]; first compound 0.2 µM),relative viability ([1]; first compound 0.6325 µM),relative viability ([1]; first compound 2 µM),relative viability ([2]; first compound 0.02 µM),relative viability ([2]; first compound 0.06325 µM),relative viability ([2]; first compound 0.2 µM),relative viability ([2]; first compound 0.6325 µM),relative viability ([2]; first compound 2 µM),relative viability ([3]; first compound 0.02 µM),relative viability ([3]; first compound 0.06325 µM),relative viability ([3]; first compound 0.2 µM),relative viability ([3]; first compound 0.6325 µM),relative viability ([3]; first compound 2 µM),relative viability ([4]; first compound 0.02 µM),relative viability ([4]; first compound 0.06325 µM),relative viability ([4]; first compound 0.2 µM),relative viability ([4]; first compound 0.6325 µM),relative viability ([4]; first compound 2 µM)
ABC-1,0.899,1.05,1.2,1.11,1.42,0.697,0.664,0.826,0.872,0.78,0.519,0.852,0.735,0.536,0.698,1.14,1.12,1.07,1.18,1.18
HCC-15,1.03,0.971,1,1.06,1.03,0.827,0.742,0.767,0.82,0.722,1.05,1.17,1.1,1.19,1.32,0.931,0.873,0.815,0.837,0.85
NCI-H2170,0.992,0.986,1.02,0.983,0.974,0.268,0.337,0.318,0.265,0.322,0.773,1.02,0.928,0.857,0.883,0.752,0.783,0.819,0.839,0.783
PC-3 [JPC-3],1.08,1,1.1,1.01,1.05,0.742,0.75,0.818,0.897,0.877,0.84,0.855,0.921,0.866,0.827,0.888,0.77,0.948,0.945,0.914
NCI-H1993,0.759,0.714,0.742,0.771,0.771,0.762,0.886,0.825,0.819,0.787,1.01,0.724,0.887,0.985,0.849,0.929,0.754,0.823,0.76,0.943
NCI-H358,0.619,0.674,0.683,0.626,0.761,0.343,0.308,0.367,0.356,0.45,0.483,0.518,0.444,0.544,0.517,0.673,0.808,0.738,0.619,0.639
NCI-H1915,1.07,1.08,1.1,1.07,1.06,0.877,0.893,0.912,0.891,0.961,0.609,0.708,0.705,0.614,0.693,0.469,0.502,0.531,0.499,0.531
RERF-LC-KJ,0.832,0.905,0.96,0.886,0.858,0.556,0.643,0.472,0.428,0.49,1.05,0.916,1.03,1.02,0.868,0.654,0.681,0.761,0.667,0.685

# From the supplement of paper PMC10307832
